# Experimental data published in article PMC3782002 (Journal of Chemical Information and Modeling, 2013).
# Where a chain is given by its changes, count along the chain named.
# T1: GR-N75L (Bacillus subtilis, UniProt P94556, N75L)
# T1 sequence (P94556 1-272 N75L): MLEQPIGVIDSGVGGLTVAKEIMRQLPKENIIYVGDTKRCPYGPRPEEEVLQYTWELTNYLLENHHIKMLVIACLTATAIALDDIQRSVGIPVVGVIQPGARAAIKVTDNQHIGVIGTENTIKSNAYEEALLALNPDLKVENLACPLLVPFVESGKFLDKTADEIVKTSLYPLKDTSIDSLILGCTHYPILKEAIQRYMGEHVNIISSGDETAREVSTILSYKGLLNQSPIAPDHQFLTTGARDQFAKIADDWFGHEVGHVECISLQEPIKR
# T2: GR-N75A (Bacillus subtilis, UniProt P94556, N75A)
# T2 sequence (P94556 1-272 N75A): T1 sequence (P94556 1-272 N75L) with L75A
# B1: GR-WT (Bacillus subtilis subsp. subtilis str. 168) (protein)
# chain: T1 sequence (P94556 1-272 N75L) with L75N
# Assays:
# Assay type in all cases: biochemical, B. subtilis
# GR-N75L [1] = biological target: T1, GR-N75L; test: Coupled-enzyme IC50 assay; details: N75L mutation
# GR-N75A [2] = biological target: T2, GR-N75A; test: Coupled-enzyme IC50 assay; details: N75A mutation
# GR-N75A [3] = biological target: T2, GR-N75A; test: Steady-state kinetics of D- to L- racemization by circular dichroism at 220 nm
# GR-N75L [4] = biological target: T1, GR-N75L; test: as above
# [5] = substrate: N[C@H](CCC(=O)O)C(=O)O; test: as above; details: other: GR-WT, 25 °C, pH 8.0
molecule,measurement,setting,value
"O=S(=O)(O)c1nc2ccccc2[nH]1 [Compound 1, 1H-benzimidazole-2-sulfonic acid]",increase in IC50 compared to the IC50 for wild-type GR,GR-N75L [1],50%
same,increase in IC50 compared to the IC50 for wild-type GR,GR-N75A [2],600%
"N[C@H](CCC(=O)O)C(=O)O [Compound 3, D-glutamate]",kcat,GR-N75A [3],45.6 ± 1.9 s⁻¹
same,Km,GR-N75A [3]; 25 °C,730 ± 90 µM
same,kcat,GR-N75L [4],0.15 ± 0.01 s⁻¹
same,Km,GR-N75L [4]; 25 °C,490 ± 100 µM
B1,kcat,[5],1.64 ± 0.03 s⁻¹
same,kcat/Km,[5],12600 ± 80 M⁻¹ s⁻¹
